Measurements reported in paper PMC11840605, “Crystallographic and Thermodynamic Evidence of Negative Coupling in the Flavin-Dependent Tryptophan Halogenases AbeH and BorH” (ACS Omega, 2025).
Several values for one entry are separate records, joined by “and”; a condition that tells them apart may be missing. Identical values can stand only once. Entries after “also recorded” stand apart in the source; their conditions may differ.

Experiments:
AbeH [1] = target: T1, AbeH (uncultured bacterium, UniProt F6LWA5); type: biochemical, uncultured soil actinomycetes; conditions: NaCl or NaBr reaction
T1 sequence (F6LWA5 entry or part of it): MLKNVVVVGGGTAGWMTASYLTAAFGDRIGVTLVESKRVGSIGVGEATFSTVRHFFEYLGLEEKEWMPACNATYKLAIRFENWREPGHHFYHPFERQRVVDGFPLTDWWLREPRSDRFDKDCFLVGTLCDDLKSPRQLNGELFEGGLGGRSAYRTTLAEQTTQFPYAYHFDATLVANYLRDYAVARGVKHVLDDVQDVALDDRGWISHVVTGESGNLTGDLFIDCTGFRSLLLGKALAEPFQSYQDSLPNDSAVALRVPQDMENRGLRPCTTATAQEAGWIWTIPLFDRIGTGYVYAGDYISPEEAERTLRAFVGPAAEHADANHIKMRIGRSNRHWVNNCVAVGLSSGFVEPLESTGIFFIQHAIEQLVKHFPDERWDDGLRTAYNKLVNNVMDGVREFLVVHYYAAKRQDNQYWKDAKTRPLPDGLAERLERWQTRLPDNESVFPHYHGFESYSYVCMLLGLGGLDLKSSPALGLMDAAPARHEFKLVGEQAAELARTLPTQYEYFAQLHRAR
Method: (§1) To test the ability of BorH and AbeH to chlorinate and brominate other substrates, 100 μL reactions containing 5 μM AbeH or BorH, 10 μM of holo-AbeF or holo-BorF, 100 mM NaCl or NaBr, 2.5 mM NADH, and 0.5 mM substrate in HEPES pH 8.0 were incubated for 12 h at 37 °C with shaking at 230 rpm. The reactions were stopped by heating at 95 °C for 5 min and centrifuged at 12,000g for 5 min. Clarified reaction mixtures were analyzed using RP-HPLC on a Kromasil C18 column (100 Å pore size, 4.6 × 250 mm) mounted on a Waters 2695 HPLC. The gradient was as follows: 0–7.5 min, 5–50% B; 7.5–14 min, 50–100%; 14–25 min, 100% B; 25–40 min 100–5% B with flow rate 0.6 mL/min (Solvent A = H2O/CH3CN 95:5, 0.1% TFA; Solvent B = H2O/CH3CN 5/95, 0.1% TFA). Substrates and products were detected by monitoring UV absorbance at the λmax for each substrate. Product peak fractions were analyzed using ESI-MS on a SYNAPT HDMS mass spectrometer in positive ion mode with leucine enkephalin internal standard.

BorH [2] = target: T2, BorH (uncultured bacterium, UniProt M9QSI0); conditions: previously shown; cited from earlier work
T2 sequence (M9QSI0 1-529): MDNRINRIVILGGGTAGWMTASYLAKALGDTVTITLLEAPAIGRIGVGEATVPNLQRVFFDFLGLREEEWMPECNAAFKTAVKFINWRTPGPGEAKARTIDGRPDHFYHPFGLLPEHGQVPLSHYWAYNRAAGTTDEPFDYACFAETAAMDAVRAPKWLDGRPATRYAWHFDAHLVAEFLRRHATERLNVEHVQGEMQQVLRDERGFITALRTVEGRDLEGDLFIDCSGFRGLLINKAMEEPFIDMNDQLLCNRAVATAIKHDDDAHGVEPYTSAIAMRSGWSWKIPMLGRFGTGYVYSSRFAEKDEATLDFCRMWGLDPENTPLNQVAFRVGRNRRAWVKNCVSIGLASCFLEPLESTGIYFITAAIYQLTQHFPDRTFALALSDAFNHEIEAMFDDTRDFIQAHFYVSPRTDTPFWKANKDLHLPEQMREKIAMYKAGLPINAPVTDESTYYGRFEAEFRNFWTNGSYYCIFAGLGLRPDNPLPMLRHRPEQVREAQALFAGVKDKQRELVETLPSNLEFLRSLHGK

BorH [3] = target: T2, BorH; assay: In vitro halogenation of aromatic substrates by BorH (with BorF, NADH, NaCl or NaBr; RP-HPLC); type: biochemical, uncultured soil actinomycetes; conditions: for BorH bromination compared with chlorination of the substrate, in words: same reaction conditions; for Halogenation (chlorination/bromination) of the substrate by BorH, in words: NaCl or NaBr reaction
Method: as §1

AbeH [4] = target: T1, AbeH; assay: Isothermal titration calorimetry, ligand into AbeH; type: binding, uncultured soil actinomycetes
Method: (§2) ITC experiments were performed using a VP-ITC isothermal titration calorimeter (MicroCal) in 20 mM HEPES pH 7.5, 350 mM NaCl, 1 mM ethylenediamine tetraacetic acid (EDTA) and 15% (v/v) glycerol. Solutions of AbeH, BorH, FAD (Chem-Implex), and Trp (Acros Organics) were prepared in the same buffer and degassed under vacuum at 30 °C for 20 min before loading in the syringe or cell. To analyze formation of binary complexes, AbeH or BorH was placed inside the cell, and ligand (FAD or Trp) was injected. For ternary complex titration, one ligand was preincubated with the macromolecule for 30 min at 30 °C to form binary complexes of AbeH/FAD, AbeH/Trp, BorH/FAD, and BorH/Trp before titrating with the second ligand. To test FADH2 binding to AbeH and BorH, FAD was reduced to FADH2 using sodium dithionite and stored under N2. Formation of FADH2 by sodium dithionite was verified using absorbance and fluorescence spectrophotometry.
(§3) ITC experiments were performed with reference power set to 10 μcal/s and Milli-Q water in the reference cell. All experiments were done with a pretitration delay of 20 min, a 5 min interval between injections, and a filter period of 2 s in high feedback gain mode. All experiments were performed at 310 rpm to mix the components in cell and titrant. All other VP-ITC instrumental parameters were set to default settings. Heats of dilution for all titrants were measured by titrating ligand into buffer for binary complex titrations, and by titrating ligand into a solution containing the other ligand but no protein for ternary complex titration.
1.2 mM FAD (2 μL/1 and 5 μL/19 injections) into 18 μM AbeH (Figure 4A)
0.12 mM FADH2 (2 μL/1 and 15 μL/19 injections) into 7 μM AbeH in the presence of sodium dithionite (Figure 4B)
1.4 mM Trp (3 μL/1 and 10 μL/29 injections) into 43 μM AbeH (Figure S7)
16 mM Trp (2 μL/1 and 10 μL/29 injections) into 18 μM AbeH (Figure 5A)
(§4) Titrations were analyzed by manually integrating each injection, subtracting the heat of dilution, and carrying out nonlinear least-squares fit of the calorimetric binding data to a one-site model using Origin 7.0 (Origin Lab). Trp binding experiments were subtracted by point-by-point heat of dilution, and FAD and FADH2 binding experiments were subtracted using the mean heat of the last three injections. For the Trp binding data, n was fixed to 1 based on expected stoichiometry of 1:1 based on FDH crystal structures and as proposed for lower c-value titrations in the literature.[23],[25],[82] The other parameters were not constrained during fitting.

BorH [5] = target: T2, BorH; assay: Isothermal titration calorimetry, ligand into BorH; type: binding, uncultured soil actinomycetes
Method: as §2, with “Solutions” for “ITC experiments were performed using a VP-ITC isothermal titration calorimeter (MicroCal) in 20 mM HEPES pH 7.5, 350 mM NaCl, 1 mM ethylenediamine tetraacetic acid (EDTA) and 15% (v/v) glycerol. Solutions”
as §3, §4

BorF = conditions: read-out: KD, flavin binding to BorF; cited from earlier work
AbeF = conditions: read-out: KD, flavin binding to AbeF; cited from earlier work

| SMILES | Halogenation (chlorination/bromination) of the substrate by AbeH, in words (AbeH [1]) | Halogenation of the substrate by BorH, in words (BorH [2]) | BorH bromination compared with chlorination of the substrate, in words (BorH [3]) | Halogenation (chlorination/bromination) of the substrate by BorH, in words (BorH [3]) | also measured |
| --- | --- | --- | --- | --- | --- |
| O=C(O)CCc1c[nH]c2ccccc12 [3-indolepropionic acid] | halogenated | halogenate | – | – | – |
| N#Cc1ccc2[nH]ccc2c1 [5-cyanoindole] | did not halogenate; also recorded: No activity | – | higher rate of bromination than chlorination | – | – |
| N[C@@H](Cc1c[nH]c2ccc(O)cc12)C(=O)O [5-hydroxytryptophan] | did not halogenate; also recorded: No activity | – | – | – | – |
| Nc1ccc2c(c1)NC(=O)CO2 [6-amino-2h-1,4-benzoxazin-3(4H)-one, 6-amino-2H-1,4-benzoxazin-3(4H)-one] | did not halogenate; also recorded: No activity | – | higher rate of bromination than chlorination | could halogenate | – |
| Nc1ccc2ncccc2c1 [6-aminoquinoline] | chlorinated and brominated | halogenate | higher rate of bromination than chlorination | halogenated | – |
| Nc1ccc2cccnc2c1 [7-aminoquinoline] | chlorinated and brominated | – | – | could not halogenate; also recorded: No activity | – |
| NC(=O)c1ccccc1N [Anthranilamide] | halogenated | halogenate | – | halogenated | – |
| Cc1cc2c(cc1C)N(C[C@H](O)[C@H](O)[C@H](O)COP(=O)(O)OP(=O)(O)OC[C@H]1O[C@@H](n3cnc4c(N)ncnc43)[C@H](O)[C@@H]1O)c1[nH]c(=O)[nH]c(=O)c1N2 [FADH2] | – | – | – | – | Kd (AbeH [4]; ITC, read-out: KD, binding to AbeH, ITC): 100 nM and 120 nM; -TDS (-TΔS, ITC, Table S3) (AbeH [4]; cell AbeH): 5.7 kcal/mol; DG (ΔG, ITC, Table S3) (AbeH [4]; cell AbeH): -9.6 kcal/mol; DH (ΔH, ITC, Table S3) (AbeH [4]; cell AbeH): -15.3 ± 0.7 kcal/mol; n (ITC, Table S3) (AbeH [4]; cell AbeH): 0.82 ± 0.03; Kd (BorH [5]; ITC, read-out: KD, binding to BorH, ITC): 200 nM and 210 nM; -TDS (-TΔS, ITC, Table S3) (BorH [5]; cell BorH): 15 kcal/mol; DG (ΔG, ITC, Table S3) (BorH [5]; cell BorH): -9.2 kcal/mol; DH (ΔH, ITC, Table S3) (BorH [5]; cell BorH): -24.2 ± 1.6 kcal/mol; n (ITC, Table S3) (BorH [5]; cell BorH): 0.97 ± 0.05; Kd (BorF): 800 nM; Kd (AbeF): 1500 nM |
| c1ccc2[nH]ccc2c1 [Indole] | efficiently chlorinated and brominated | – | higher rate of bromination than chlorination | – | – |
| NCCc1c[nH]c2ccc(O)cc12 [Serotonin] | did not halogenate; also recorded: No activity | – | – | – | – |
| NCCc1c[nH]c2ccccc12 [Tryptamine] | No activity | halogenate | – | – | – |
| Nc1ccccc1C(=O)CC(N)C(=O)O (centres unmarked) [kynurenine] | – | halogenate | – | – | – |
